Laboratory results reported in patent EP0327492A1, “Herbicidally and plantgrowth regulatory active quinoline and pyrindine compounds” (CIBA-GEIGY AG, priority 1988, dated 1989).

Tests used:
Format in all cases: in vivo
Abutilon [1] = assay: Pre-emergent herbicidal action (B.2); conditions: 500 bis 2000 [g/ha], evaluated after 3 weeks
Method in brief: (§1)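 Immediately after sowing in greenhouse, soil surface sprayed with aqueous dispersion of an emulsion concentrate at 2000-500 g active ingredient/ha. Plants kept at 22-25 °C, 50-70% relative humidity; damage rated after 3 weeks on a 1 (dead/not germinated) to 9 (normal growth) scale.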

Alopecurus myos. [2] = assay: Pre-emergent herbicidal action (B.2); conditions: 500 bis 2000 [g/ha], evaluated after 3 weeks
Method in brief: as §1

Amaranthus ret. [3] = assay: Pre-emergent herbicidal action (B.2); conditions: 500 bis 2000 [g/ha], evaluated after 3 weeks
Method in brief: as §1

Avena fatua [4] = assay: Pre-emergent herbicidal action (B.2); conditions: 500 bis 2000 [g/ha], evaluated after 3 weeks
Method in brief: as §1

Bromus tectorum [5] = assay: Pre-emergent herbicidal action (B.2); conditions: 500 bis 2000 [g/ha], evaluated after 3 weeks
Method in brief: as §1

Chenopodium Sp. [6] = assay: Pre-emergent herbicidal action (B.2); conditions: 500 bis 2000 [g/ha], evaluated after 3 weeks
Method in brief: as §1

Chrysanthe. leuc. [7] = assay: Pre-emergent herbicidal action (B.2); conditions: 500 bis 2000 [g/ha], evaluated after 3 weeks
Method in brief: as §1

Digitaria sang. [8] = assay: Pre-emergent herbicidal action (B.2); conditions: 500 bis 2000 [g/ha], evaluated after 3 weeks
Method in brief: as §1

Echinochloa crus galli [9] = assay: Pre-emergent herbicidal action (B.2); conditions: 500 bis 2000 [g/ha], evaluated after 3 weeks
Method in brief: as §1

Galium aparine [10] = assay: Pre-emergent herbicidal action (B.2); conditions: 500 bis 2000 [g/ha], evaluated after 3 weeks
Method in brief: as §1

Ipomoea = assay: Pre-emergent herbicidal action (B.2); conditions: 500 bis 2000 [g/ha], evaluated after 3 weeks
Method in brief: as §1

Lolium perenne [11] = assay: Pre-emergent herbicidal action (B.2); conditions: 500 bis 2000 [g/ha], evaluated after 3 weeks
Method in brief: as §1

Sinapis [12] = assay: Pre-emergent herbicidal action (B.2); conditions: 500 bis 2000 [g/ha], evaluated after 3 weeks
Method in brief: as §1

Solanum nigrum [13] = assay: Pre-emergent herbicidal action (B.2); conditions: 500 bis 2000 [g/ha], evaluated after 3 weeks
Method in brief: as §1

Sorghum halep. [14] = assay: Pre-emergent herbicidal action (B.2); conditions: 500 bis 2000 [g/ha], evaluated after 3 weeks
Method in brief: as §1

Stellaria [15] = assay: Pre-emergent herbicidal action (B.2); conditions: 500 bis 2000 [g/ha], evaluated after 3 weeks
Method in brief: as §1

Veronica Sp. [16] = assay: Pre-emergent herbicidal action (B.2); conditions: 500 bis 2000 [g/ha], evaluated after 3 weeks
Method in brief: as §1

Soja [17] = assay: Pre-emergent herbicidal action (B.2), crop tolerance; conditions: 500 bis 2000 [g/ha], evaluated after 3 weeks
Description: (§2) Im Gewächshaus wird unmittelbar nach der Einsaat der Versuchspflanzen in Saatschalen die Erdoberfläche mit einer wässrigen Dispersion der Wirkstoffe, erhalten aus einem 25 %igen Emulsionskonzentrat behandelt. Es werden Konzentrationen von 2000-500 g Wirksubstanz/Hektar angewendet. Die Saatschalen werden im Gewächshaus bei 22-25° C und 50-70 % relativer Luftfeuchtigkeit gehalten und der Versuch nach 3 Wochen ausgewertet und die Resultate nach folgender Notenskala ausgewertet. • 1 Pflanze hat nicht gekeimt oder ist eingegangen • 2-3 sehr starke Schäden • 4 starke Schäden • 5 mittlere Schäden, die Pflanzen sind verkümmert • 6 Schäden, die Pflanze kann regenerieren • 7-8 leichte Schäden • 9 normales Wachstum, wie das unbehandelter Pflanzen
(§3) Boniturnoten von 1 bis 4 (insbesondere von 1 bis 3) weisen auf eine gute bis sehr gute Herbizidwirkung hin. Boniturnoten von 6 bis 9 (insbesondere 7 bis 9) weisen auf eine gute Toleranz (insbesondere bei Kulturpflanzen) hin.

Abutilon [18] = assay: Post-emergent herbicidal action, contact herbicide (B.3); conditions: 500 bis 2000 [g/ha], 15 days after treatment
Method in brief: (§4)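 Greenhouse, post-emergence spray on 4-6-leaf weeds; aqueous dispersion, 2000-500 g a.i./ha; 24-26 °C, 45-60% RH; visual rating at 15 d, 1 = dead, 9 = normal growth.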

Alopecurus myos. [19] = assay: as above; conditions: 500 bis 2000 [g/ha], 15 days after treatment
Method in brief: as §4

Amaranthus ret. [20] = assay: as above; conditions: 500 bis 2000 [g/ha], 15 days after treatment
Method in brief: as §4

Avena fatua [21] = assay: as above; conditions: 500 bis 2000 [g/ha], 15 days after treatment
Method in brief: as §4

Bromus tectorum [22] = assay: as above; conditions: 500 bis 2000 [g/ha], 15 days after treatment
Method in brief: as §4

Chenopodium Sp. [23] = assay: as above; conditions: 500 bis 2000 [g/ha], 15 days after treatment
Method in brief: as §4

Chrysanthe. leuc. [24] = assay: as above; conditions: 500 bis 2000 [g/ha], 15 days after treatment
Method in brief: as §4

Digitaria sang. [25] = assay: as above; conditions: 500 bis 2000 [g/ha], 15 days after treatment
Method in brief: as §4

Echinochloa crus galli [26] = assay: as above; conditions: 500 bis 2000 [g/ha], 15 days after treatment
Method in brief: as §4

Galium aparine [27] = assay: as above; conditions: 500 bis 2000 [g/ha], 15 days after treatment
Method in brief: as §4

Lolium perenne [28] = assay: as above; conditions: 500 bis 2000 [g/ha], 15 days after treatment
Method in brief: as §4

Sinapis [29] = assay: as above; conditions: 500 bis 2000 [g/ha], 15 days after treatment
Method in brief: as §4

Solanum nigrum [30] = assay: as above; conditions: 500 bis 2000 [g/ha], 15 days after treatment
Method in brief: as §4

Sorghum halep. [31] = assay: as above; conditions: 500 bis 2000 [g/ha], 15 days after treatment
Method in brief: as §4

Stellaria [32] = assay: as above; conditions: 500 bis 2000 [g/ha], 15 days after treatment
Method in brief: as §4

Veronica Sp. [33] = assay: as above; conditions: 500 bis 2000 [g/ha], 15 days after treatment
Method in brief: as §4

Xanthium Sp. = assay: as above; conditions: 500 bis 2000 [g/ha], 15 days after treatment
Method in brief: as §4

Baumwolle = assay: Post-emergent herbicidal action (B.3), crop tolerance; conditions: 500 bis 2000 [g/ha], 15 days after treatment
Description: as §2, §3
(§5) Eine Anzahl Unkräuter, sowohl monokotyle wie dikotyle, werden nach dem Auflaufen (im 4- bis 6-Blattstadium) mit einer wässrigen Wirkstoffdispersion in einer Dosierung von 2000-500 g Wirksubstanz pro Hektar auf die Pflanzen gespritzt und diese bei 24°-26°C und 45-60 % relativer Luftfeuchtigkeit gehalten. 15 Tage nach der Behandlung wird der Versuch nach dem in Beispiel B.2. gegebenen Massstab bewertet.

Soja [34] = assay: as above; conditions: 500 bis 2000 [g/ha], 15 days after treatment
Description: as §2, §3, §5

CC1CCc2nc(C3=NC(=O)C(C)(C(C)C)N3)c(C(=O)O)cc2C1 (stereo not shown) [Verbindung 2.01, 2-(5-Isopropyl-5-methyl-1H-imidazol-4-on-2-yl)-6-methyl-5,6,7,8-tetrahydrochinolin-3-carbonsäure]
Herbizidwirkung (Abutilon [1]): gute bis sehr gute Herbizidwirkung (Boniturnoten von 1 bis 4 (insbesondere von 1 bis 3) weisen auf eine gute bis sehr gute Herbizidwirkung hin) | Herbizidwirkung (Alopecurus myos. [2]): gute bis sehr gute Herbizidwirkung (Boniturnoten von 1 bis 4 (insbesondere von 1 bis 3) weisen auf eine gute bis sehr gute Herbizidwirkung hin) | Herbizidwirkung (Amaranthus ret. [3]): gute bis sehr gute Herbizidwirkung (Boniturnoten von 1 bis 4 (insbesondere von 1 bis 3) weisen auf eine gute bis sehr gute Herbizidwirkung hin) | Herbizidwirkung (Avena fatua [4]): gute bis sehr gute Herbizidwirkung (Boniturnoten von 1 bis 4 (insbesondere von 1 bis 3) weisen auf eine gute bis sehr gute Herbizidwirkung hin) | Herbizidwirkung (Bromus tectorum [5]): gute bis sehr gute Herbizidwirkung (Boniturnoten von 1 bis 4 (insbesondere von 1 bis 3) weisen auf eine gute bis sehr gute Herbizidwirkung hin) | Herbizidwirkung (Chenopodium Sp. [6]): gute bis sehr gute Herbizidwirkung (Boniturnoten von 1 bis 4 (insbesondere von 1 bis 3) weisen auf eine gute bis sehr gute Herbizidwirkung hin) | Herbizidwirkung (Chrysanthe. leuc. [7]): gute bis sehr gute Herbizidwirkung (Boniturnoten von 1 bis 4 (insbesondere von 1 bis 3) weisen auf eine gute bis sehr gute Herbizidwirkung hin) | Herbizidwirkung (Digitaria sang. [8]): gute bis sehr gute Herbizidwirkung (Boniturnoten von 1 bis 4 (insbesondere von 1 bis 3) weisen auf eine gute bis sehr gute Herbizidwirkung hin) | Herbizidwirkung (Echinochloa crus galli [9]): gute bis sehr gute Herbizidwirkung (Boniturnoten von 1 bis 4 (insbesondere von 1 bis 3) weisen auf eine gute bis sehr gute Herbizidwirkung hin) | Herbizidwirkung (Galium aparine [10]): gute bis sehr gute Herbizidwirkung (Boniturnoten von 1 bis 4 (insbesondere von 1 bis 3) weisen auf eine gute bis sehr gute Herbizidwirkung hin) | Herbizidwirkung (Ipomoea): gute bis sehr gute Herbizidwirkung (Boniturnoten von 1 bis 4 (insbesondere von 1 bis 3) weisen auf eine gute bis sehr gute Herbizidwirkung hin) | Herbizidwirkung (Lolium perenne [11]): gute bis sehr gute Herbizidwirkung (Boniturnoten von 1 bis 4 (insbesondere von 1 bis 3) weisen auf eine gute bis sehr gute Herbizidwirkung hin) | Herbizidwirkung (Sinapis [12]): gute bis sehr gute Herbizidwirkung (Boniturnoten von 1 bis 4 (insbesondere von 1 bis 3) weisen auf eine gute bis sehr gute Herbizidwirkung hin) | Herbizidwirkung (Solanum nigrum [13]): gute bis sehr gute Herbizidwirkung (Boniturnoten von 1 bis 4 (insbesondere von 1 bis 3) weisen auf eine gute bis sehr gute Herbizidwirkung hin) | Herbizidwirkung (Sorghum halep. [14]): gute bis sehr gute Herbizidwirkung (Boniturnoten von 1 bis 4 (insbesondere von 1 bis 3) weisen auf eine gute bis sehr gute Herbizidwirkung hin) | Herbizidwirkung (Stellaria [15]): gute bis sehr gute Herbizidwirkung (Boniturnoten von 1 bis 4 (insbesondere von 1 bis 3) weisen auf eine gute bis sehr gute Herbizidwirkung hin) | Herbizidwirkung (Veronica Sp. [16]): gute bis sehr gute Herbizidwirkung (Boniturnoten von 1 bis 4 (insbesondere von 1 bis 3) weisen auf eine gute bis sehr gute Herbizidwirkung hin) | Toleranz (im Wachstum beeinflusst) (Soja [17]): gute Toleranz (Boniturnoten von 6 bis 9 (insbesondere 7 bis 9) weisen auf eine gute Toleranz (insbesondere bei Kulturpflanzen) hin) | Herbizidwirkung (Abutilon [18]): gute bis sehr gute Herbizidwirkung (Boniturnoten von 1 bis 4 (insbesondere von 1 bis 3) weisen auf eine gute bis sehr gute Herbizidwirkung hin) | Herbizidwirkung (Alopecurus myos. [19]): gute bis sehr gute Herbizidwirkung (Boniturnoten von 1 bis 4 (insbesondere von 1 bis 3) weisen auf eine gute bis sehr gute Herbizidwirkung hin) | Herbizidwirkung (Amaranthus ret. [20]): gute bis sehr gute Herbizidwirkung (Boniturnoten von 1 bis 4 (insbesondere von 1 bis 3) weisen auf eine gute bis sehr gute Herbizidwirkung hin) | Herbizidwirkung (Avena fatua [21]): gute bis sehr gute Herbizidwirkung (Boniturnoten von 1 bis 4 (insbesondere von 1 bis 3) weisen auf eine gute bis sehr gute Herbizidwirkung hin) | Herbizidwirkung (Bromus tectorum [22]): gute bis sehr gute Herbizidwirkung (Boniturnoten von 1 bis 4 (insbesondere von 1 bis 3) weisen auf eine gute bis sehr gute Herbizidwirkung hin) | Herbizidwirkung (Chenopodium Sp. [23]): gute bis sehr gute Herbizidwirkung (Boniturnoten von 1 bis 4 (insbesondere von 1 bis 3) weisen auf eine gute bis sehr gute Herbizidwirkung hin) | Herbizidwirkung (Chrysanthe. leuc. [24]): gute bis sehr gute Herbizidwirkung (Boniturnoten von 1 bis 4 (insbesondere von 1 bis 3) weisen auf eine gute bis sehr gute Herbizidwirkung hin) | Herbizidwirkung (Digitaria sang. [25]): gute bis sehr gute Herbizidwirkung (Boniturnoten von 1 bis 4 (insbesondere von 1 bis 3) weisen auf eine gute bis sehr gute Herbizidwirkung hin) | Herbizidwirkung (Echinochloa crus galli [26]): gute bis sehr gute Herbizidwirkung (Boniturnoten von 1 bis 4 (insbesondere von 1 bis 3) weisen auf eine gute bis sehr gute Herbizidwirkung hin) | Herbizidwirkung (Galium aparine [27]): gute bis sehr gute Herbizidwirkung (Boniturnoten von 1 bis 4 (insbesondere von 1 bis 3) weisen auf eine gute bis sehr gute Herbizidwirkung hin) | Herbizidwirkung (Lolium perenne [28]): gute bis sehr gute Herbizidwirkung (Boniturnoten von 1 bis 4 (insbesondere von 1 bis 3) weisen auf eine gute bis sehr gute Herbizidwirkung hin) | Herbizidwirkung (Sinapis [29]): gute bis sehr gute Herbizidwirkung (Boniturnoten von 1 bis 4 (insbesondere von 1 bis 3) weisen auf eine gute bis sehr gute Herbizidwirkung hin) | Herbizidwirkung (Solanum nigrum [30]): gute bis sehr gute Herbizidwirkung (Boniturnoten von 1 bis 4 (insbesondere von 1 bis 3) weisen auf eine gute bis sehr gute Herbizidwirkung hin) | Herbizidwirkung (Sorghum halep. [31]): gute bis sehr gute Herbizidwirkung (Boniturnoten von 1 bis 4 (insbesondere von 1 bis 3) weisen auf eine gute bis sehr gute Herbizidwirkung hin) | Herbizidwirkung (Stellaria [32]): gute bis sehr gute Herbizidwirkung (Boniturnoten von 1 bis 4 (insbesondere von 1 bis 3) weisen auf eine gute bis sehr gute Herbizidwirkung hin) | Herbizidwirkung (Veronica Sp. [33]): gute bis sehr gute Herbizidwirkung (Boniturnoten von 1 bis 4 (insbesondere von 1 bis 3) weisen auf eine gute bis sehr gute Herbizidwirkung hin) | Herbizidwirkung (Xanthium Sp.): gute bis sehr gute Herbizidwirkung (Boniturnoten von 1 bis 4 (insbesondere von 1 bis 3) weisen auf eine gute bis sehr gute Herbizidwirkung hin) | Toleranz (im Wachstum beeinflusst) (Baumwolle): gute Toleranz (Boniturnoten von 6 bis 9 (insbesondere 7 bis 9) weisen auf eine gute Toleranz (insbesondere bei Kulturpflanzen) hin) | Toleranz (im Wachstum beeinflusst) (Soja [34]): gute Toleranz (Boniturnoten von 6 bis 9 (insbesondere 7 bis 9) weisen auf eine gute Toleranz (insbesondere bei Kulturpflanzen) hin)
